Source: the supplement of paper PMC10307832

Experiments:
Test in all cases: relative viability (nuclei count vs DMSO), 5 days (fraction); higher = more cells survive
Everolimus + Tozasertib = compound: CO[C@H]1C[C@@H]2CC[C@@H](C)[C@@](O)(O2)C(=O)C(=O)N2CCCC[C@H]2C(=O)O[C@H]([C@H](C)C[C@@H]2CC[C@@H](OCCO)[C@H](OC)C2)CC(=O)[C@H](C)/C=C(\C)[C@@H](O)[C@@H](OC)C(=O)[C@H](C)C[C@H](C)/C=C/C=C/C=C/1C [Everolimus] + Cc1cc(Nc2cc(N3CCN(C)CC3)nc(Sc3ccc(NC(=O)C4CC4)cc3)n2)n[nH]1 [Tozasertib] (partner 0.1 µM)
How it was run: (§1)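 Relative viability divides the nuclei count in treated wells by that in vehicle wells. Lung cancer cell lines were seeded in 1536-well plates, dosed by pin tool the next day, and fixed and stained after 5 days in one step with final 0.05% Triton X-100, 1% formaldehyde and 1 ug/ml Hoechst. Dosing was a single drug or a fixed anchor-drug dose plus five library-drug doses (not always all listed) in √10 steps, and values are medians of duplicate plates imaged at 4×.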

Everolimus + Phenformin = compound: CO[C@H]1C[C@@H]2CC[C@@H](C)[C@@](O)(O2)C(=O)C(=O)N2CCCC[C@H]2C(=O)O[C@H]([C@H](C)C[C@@H]2CC[C@@H](OCCO)[C@H](OC)C2)CC(=O)[C@H](C)/C=C(\C)[C@@H](O)[C@@H](OC)C(=O)[C@H](C)C[C@H](C)/C=C/C=C/C=C/1C [Everolimus] + N=C(N)NC(=N)NCCc1ccccc1 [Phenformin] (partner 250 µM)
How it was run: as §1

Everolimus + Navitoclax = compound: CO[C@H]1C[C@@H]2CC[C@@H](C)[C@@](O)(O2)C(=O)C(=O)N2CCCC[C@H]2C(=O)O[C@H]([C@H](C)C[C@@H]2CC[C@@H](OCCO)[C@H](OC)C2)CC(=O)[C@H](C)/C=C(\C)[C@@H](O)[C@@H](OC)C(=O)[C@H](C)C[C@H](C)/C=C/C=C/C=C/1C [Everolimus] + CC1(C)CCC(c2ccc(Cl)cc2)=C(CN2CCN(c3ccc(C(=O)NS(=O)(=O)c4ccc(N[C@H](CCN5CCOCC5)CSc5ccccc5)c(S(=O)(=O)C(F)(F)F)c4)cc3)CC2)C1 [Navitoclax] (partner 0.5 µM)
How it was run: as §1

Everolimus = compound: CO[C@H]1C[C@@H]2CC[C@@H](C)[C@@](O)(O2)C(=O)C(=O)N2CCCC[C@H]2C(=O)O[C@H]([C@H](C)C[C@@H]2CC[C@@H](OCCO)[C@H](OC)C2)CC(=O)[C@H](C)/C=C(\C)[C@@H](O)[C@@H](OC)C(=O)[C@H](C)C[C@H](C)/C=C/C=C/C=C/1C [Everolimus]
How it was run: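 A plate was accepted only when its control CV was below 25% and the cells had doubled at least once. Viability is defined from nuclear counts as treated wells divided by vehicle wells, with the median taken across plates. That median covers lung cancer cell lines grown in 1536-well plates, dosed by pinning at five √10-spaced library-drug concentrations, and counted in MetaXpress from 4× Hoechst images after 5 days.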

| Cell Line | relative viability (Everolimus + Tozasertib; first compound 0.01 µM) | relative viability (Everolimus + Tozasertib; first compound 0.03162 µM) | relative viability (Everolimus + Tozasertib; first compound 0.3162 µM) | relative viability (Everolimus + Tozasertib; first compound 1 µM) | relative viability (Everolimus + Phenformin; first compound 0.01 µM) | relative viability (Everolimus + Phenformin; first compound 0.03162 µM) | relative viability (Everolimus + Phenformin; first compound 0.3162 µM) | relative viability (Everolimus + Phenformin; first compound 1 µM) | relative viability (Everolimus + Navitoclax; first compound 0.01 µM) | relative viability (Everolimus + Navitoclax; first compound 0.03162 µM) | relative viability (Everolimus + Navitoclax; first compound 0.1 µM) | relative viability (Everolimus + Navitoclax; first compound 0.3162 µM) | relative viability (Everolimus + Navitoclax; first compound 1 µM) | relative viability (Everolimus; 0.01 µM) | relative viability (Everolimus; 0.03162 µM) | relative viability (Everolimus; 0.1 µM) | relative viability (Everolimus; 0.3162 µM) | relative viability (Everolimus; 1 µM) | relative viability (Everolimus + Tozasertib; first compound 0.1 µM) | relative viability (Everolimus + Phenformin; first compound 0.1 µM) |
| --- | --- | --- | --- | --- | --- | --- | --- | --- | --- | --- | --- | --- | --- | --- | --- | --- | --- | --- | --- | --- |
| HARA | 0.226 | 0.126 | 0.116 | 0.293 | 0.412 | 0.489 | 0.419 | 0.466 | 1.14 | 1.2 | 1.12 | 1.11 | 0.898 | 0.858 | 0.999 | 0.784 | 0.87 | 0.78 |  |  |
| HCC-15 | 0.483 | 0.457 | 0.365 | 0.272 | 0.465 | 0.474 | 0.497 | 0.471 | 0.691 | 0.629 | 0.512 | 0.637 | 0.512 | 0.964 | 0.994 | 0.922 | 0.98 | 0.958 | 0.437 | 0.459 |
| HCC-44 | 1.07 | 1.07 | 0.97 | 1.19 | 0.195 | 0.125 | 0.178 | 0.168 | 0.941 | 0.88 | 0.819 | 0.904 | 0.903 | 1 | 0.974 | 0.985 | 0.969 | 0.957 | 0.94 | 0.127 |
| HCC-78 | 0.361 | 0.428 | 0.426 | 0.454 | 0.504 | 0.462 | 0.564 | 0.626 | 0.853 | 0.421 | 0.424 | 0.589 | 0.455 | 0.905 | 0.919 | 0.659 | 0.858 | 0.644 | 0.406 | 0.451 |
| HCC-366 | 0.097 | 0.102 | 0.0539 | 0.0447 | 0.59 | 0.613 | 0.528 | 0.582 | 0.859 | 0.823 | 0.871 | 0.91 | 0.511 | 0.955 | 0.961 | 0.935 | 0.929 | 0.972 | 0.347 | 0.601 |
| HCC-827 | 0.451 | 0.417 | 0.378 | 0.366 | 0.434 | 0.404 | 0.396 | 0.403 | 1.02 | 1.07 | 0.99 | 1.04 | 0.987 | 1.1 | 1.09 | 1.01 | 1.03 | 1.05 | 0.404 | 0.416 |
| IA-LM |  |  |  |  |  |  |  |  | 0.314 | 0.317 | 0.395 | 0.389 | 0.302 | 0.601 | 0.396 | 0.378 | 0.374 | 0.406 |  |  |
| LCLC-103H | 0.459 | 0.451 | 0.446 | 0.322 | 0.309 | 0.274 | 0.309 | 0.331 |  |  |  |  |  | 0.977 | 0.969 | 0.834 | 0.922 | 0.871 | 0.4 | 0.294 |
| NCI-H358 | 0.0999 | 0.106 | 0.101 | 0.0971 | 0.208 | 0.25 | 0.234 | 0.298 |  |  |  |  |  | 0.483 | 0.487 | 0.514 | 0.479 | 0.525 | 0.0871 | 0.227 |
| NCI-H522 | 0.584 | 0.432 | 0.505 | 0.458 | 0.588 | 0.527 | 0.51 | 0.503 |  |  |  |  |  | 0.722 | 0.655 | 0.601 | 0.731 | 0.813 | 0.409 | 0.549 |
| NCI-H650 | 0.738 |  | 0.589 | 0.45 | 0.423 |  | 0.364 | 0.294 |  |  |  |  |  | 0.7 |  | 0.783 | 0.566 | 0.583 | 0.604 | 0.431 |
| NCI-H661 | 0.363 | 0.368 | 0.359 | 0.376 | 0.253 | 0.259 | 0.271 | 0.281 |  |  |  |  |  | 0.812 | 0.814 | 0.786 | 0.746 | 0.667 | 0.391 | 0.258 |
| NCI-H1299 |  |  |  |  |  |  |  |  | 1.03 | 1.03 | 1.04 | 1.08 | 1.07 | 0.969 | 0.98 | 1.01 | 0.974 | 1.04 |  |  |
| NCI-H1563 |  |  |  |  | 0.658 | 0.661 | 0.657 | 0.592 |  |  |  |  |  | 0.767 | 0.761 | 0.715 | 0.728 | 0.676 |  | 0.657 |
| NCI-H1648 | 0.41 | 0.776 | 0.549 | 0.388 |  |  |  |  |  |  |  |  |  | 0.646 | 0.778 | 0.718 | 0.596 | 0.654 | 0.585 |  |
| NCI-H1703 |  |  |  |  |  |  |  |  | 0.443 | 0.453 | 0.553 | 0.457 | 0.671 | 0.455 | 0.373 | 0.456 | 0.529 | 0.63 |  |  |
| NCI-H1792 |  |  |  |  | 0.154 | 0.129 | 0.129 | 0.0809 | 0.316 | 0.251 | 0.29 | 0.244 | 0.362 | 0.478 | 0.336 | 0.363 | 0.349 | 0.379 |  | 0.162 |
| NCI-H2342 | 0.557 | 0.4 | 0.352 | 0.407 | 0.436 | 0.34 | 0.411 | 0.49 |  |  |  |  |  | 0.569 | 0.512 | 0.531 | 0.667 | 0.641 | 0.435 | 0.352 |
| SW 900 | 0.332 | 0.462 | 0.404 | 0.448 | 0.43 | 0.492 | 0.324 | 0.45 |  |  |  |  |  | 0.578 | 0.498 | 0.545 | 0.57 | 0.512 | 0.442 | 0.371 |
